How the values were obtained:
Type in all cases: cell-based
[1] = system: Tre genetic element (rtTA); experiment: Example 1 multiplex circuit: small molecule effector (dox) transfer curve, input reporter EBFP2 by FACS; details: Example 1, FIG. 7, normalized input reporter EBFP2, HEK 293 FT
From the text: Both the regulatory protein transcription unit and the input reporter protein transcription unit are under the control of the small molecule effector doxycycline (dox). In this example, the activity of the small molecule effector (dox) is mediated through an effector transcription unit. The effector transcription unit comprises a constitutive effector genetic element (pHef1a) and a coding sequence for an effector-regulated protein (rtTA), wherein the constitutive effector genetic element (pHef1a) controls expression of the effector-controlled protein (rtTA). […]
The input transcription unit comprises a genetic element responsive to a small molecule effector (Tre) and a coding sequence for the input reporter protein (EBFP2), wherein the genetic element responsive to the effector-regulated protein (Tre) controls expression of the input reporter protein (EBPF2). […] The input reporter protein EBFP2 has a blue fluorescence emission. […]
(§1) The cells are then subjected to FACS analysis and the amounts of input, output and constitutive protein fluorescence is measured for each cell. […]
(§2) While the colors for the input, output and constitutive protein fluorescence are selected to have as little overlap as possible, there is some inherent overlap between the different colors. […]

[2] = system: Tre genetic element (rtTA); experiment: Example 2 multiplex circuit: small molecule effector (dox) transfer curve, input reporter EYFP; details: Example 2, FIG. 10, normalized input reporter EYFP
From the text: The multiplex circuit to be characterized is shown in FIG. 9. he regulatory protein transcription unit and the input reporter protein transcription unit, which are co-expressed in this example, are under the control of the small molecule effector doxycycline (dox), which binds to the constitutively expressed protein rtTA to regulate transcription from the Tre genetic element. In this example, the effector transcription unit comprises a constitutive effector genetic element (CAG) and a coding sequence for an effector-regulated protein (rtTA), wherein the constitutive effector genetic element (CAG) controls expression of the effector-controlled protein (rtTA). In this example, the effector transcription unit further comprises coding sequence for the VP16-GAL4 activator which binds UAS-T1 in the output transcription unit. In the absence of dox, Tal1 is not expressed and the constitutively expressed VP16-GAL4 activator binds to UAS-T1, leading to expression of the mKate output reporter. The effector transcription unit contains a coding sequence for a 2A self-cleaving peptide allowing for expression of rtTA and VP16-GAL4 from the same construct. The test regulatory protein transcription unit and the input transcription unit are co-expressed from a genetic element responsive to a small molecule effector (Tre). […] The input reporter protein EYFP has a yellow fluorescence emission. […]

[3] = system: Hef1a-LacO1Oid; experiment: Example 1 multiplex circuit: regulatory protein (LacI) transfer curve, output reporter EYFP by FACS; details: Example 1, FIG. 8, normalized output reporter EYFP
From the text: The regulatory protein transcription unit comprises a genetic element responsive to a small molecule effector (Tre) and a coding sequence for the regulatory protein (LacI), wherein the genetic element responsive to the genetic element responsive to the effector-regulated protein (Tre) controls expression of the regulatory protein (LacI). In the present case, the genetic element responsive to the effector-regulated protein (Tre) is responsive to the effector-controlled protein (rtTA).
The output transcription unit comprising a genetic element responsive to the regulatory protein (Hef1a-LacO1Oid) and a coding sequence for the output reporter protein (EYFP), wherein the genetic element responsive to the regulatory protein (Hef1a-LacO1Oid) controls expression of the output reporter protein (EYFP). The output reporter protein EYFP has a yellow fluorescence emission. […]
as §1, §2

Molecule	dox level at which the level of IFP saturates at a high value [1]	dox level at which the level of IFP stays low regardless of the plasmid count [1]	dox level at which the level of IFP saturates at a high value [2]	dox level at which the level of IFP stays low regardless of the plasmid count [2]	repression of the output of Hef1a-LacO1Oid [3]
C[C@H]1c2cccc(O)c2C(=O)C2=C(O)[C@]3(O)C(=O)C(C(N)=O)=C(O)[C@@H](N(C)C)[C@@H]3[C@@H](O)[C@@H]21 [dox, doxycycline]	more than 200 nM	less than or equal to 3 nM	more than 200 nM	less than or equal to 3 nM	–
LacI: test regulatory protein (Lac repressor) binding Hef1a-LacO1Oid (protein, UniProt P03023 1-360, looked up) Lactose operon repressor: MKPVTLYDVAEYAGVSYQTVSRVVNQASHVSAKTREKVEAAMAELNYIPNRVAQQLAGKQSLLIGVATSSLALHAPSQIVAAIKSRADQLGASVVVSMVERSGVEACKAAVHNLLAQRVSGLIINYPLDDQDAIAVEAACTNVPALFLDVSDQTPINSIIFSHEDGTRLGVEHLVALGHQQIALLAGPLSSVSARLRLAGWHKYLTRNQIQPIAEREGDWSAMSGFQQTMQMLNEGIVPTAMLVANDQMALGAMRAITESGLRVGADISVVGYDDTEDSSCYIPPLTTIKQDFRLLGQTSVDRLLQLSQGQAVKGNQLLPVSLVKRKTTLAPNTQTASPRALADSLMQLARQVSRLESGQ	–	–	–	–	100 fold
